One data set has as its system decarboxylase enzymes. Particulars: cited from earlier work.
For the next data set, the system named is Parkinson's Disease. As to conditions: in vivo, po; cited from earlier work.
For data set [1] the following is noted: cited from earlier work.
A short description of data set [2]: Absorption of L-DOPA from the gastrointestinal tract (inventors' experimentation). Format: in vivo. The source says: As for (1), it has been confirmed that the decomposition of L-DOPA in the stomach is remarkable as shown in numerous reports in the past.
As a result, optimum absorption of the drug is totally incomplete.

For data set [3] the following is noted: dopamine as metabolite; cited from earlier work.

Molecules are shown by their SMILES.

As to `N[C@@H](Cc1ccc(O)c(O)c1)C(=O)O` [L-DOPA, 3,4-dihydroxy-L-phenylalanine], the “decarboxylation via decarboxylase enzymes in the intestine” value in the data set with decarboxylase enzymes was “apt to undergo decarboxylation”. The “side effects when massive dosing is administered” value with Parkinson's Disease is on record as “marked side effects”. For the same compound, in data set [1] (in vivo), the “decomposition in the stomach” value is given as “remarkable” and the “stability in the gastrointestinal tract, especially in the stomach” value is listed as “unstable”. Also, the “absorption from the gastrointestinal tract (prior art reason)” value in data set [1] (oral) was “poorly absorbed”. Moreover, in data set [2] (in vivo), the “absorption from the gastrointestinal tract” value is recorded as “almost completely absorbed” and the optimum absorption site entry was “small intestine, especially in the upper part thereof”. Besides, in data set [2] (oral vs intravenous), the “absorption, oral as compared to intravenous” value is recorded as “not appreciably different”.
Regarding `NCCc1ccc(O)c(O)c1` [dopamine], in data set [3], the “therapeutic effect in the treatment of Parkinson's Disease” value is recorded as “does not have any therapeutic effect”.

Source of the values: patent US3961041A, “Effervescent enteric coated L-dopa formulation and method of using the same” (priority 1974, dated 1976).
